Experimental data reported in patent US20250360218A1, “MITOCHONDRIA-TARGETING CANCER THERAPEUTIC COMPOSITION” (Seoul National University R&DB Foundation, priority 2022, published 2025).

Molecular target: TSPO (Homo sapiens, UniProt P30536)
Test: protein binding capacity for TSPO
Description: In order to find the conjugation position of IR780, a photosensitizer according to Example of the present invention, and an imidazopyridine derivative, a molecular docking simulation was performed. […] Accordingly, the compound of the present invention, a compound targeting mitochondria in cancer cells, was designed and synthesized so that IR780 was introduced by selecting a position (position Y in FIG. 1B) where steric hindrance is not expected, and then its protein binding capacity was measured.

Chain of TSPO (P30536 whole entry): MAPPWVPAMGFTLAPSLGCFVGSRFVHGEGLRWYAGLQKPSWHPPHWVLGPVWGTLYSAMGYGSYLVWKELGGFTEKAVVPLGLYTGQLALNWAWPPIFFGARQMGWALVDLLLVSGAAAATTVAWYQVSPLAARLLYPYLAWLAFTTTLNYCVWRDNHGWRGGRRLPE

CCCN(CCC)C(=O)Cc1c(-c2ccc(Cl)cc2)nc2c(NC(=S)Nc3ccc(SC4=C(/C=C/C5=[N+](CCC)c6ccccc6C5(C)C)CCC/C4=C\C=C4\N(CCC)c5ccccc5C4(C)C)cc3)cccn12
Ki: 0.201 µM
